Measured values taken from ChEMBL document CHEMBL4024741, “A minimalistic tetrapeptide amphiphile scaffold for transmembrane pores with a preference for sodium” (Bioorg Med Chem Lett, 2017).
Calls of active or inactive are those of the source. No cut-off for these calls is given here.

Columns and labels:
[1] = Effect on membrane integrity in EYPC/cholesterol vesicles at 40 uM by dynamic light scattering method; assay type: ADME
[2] = Binding affinity to sodium ion in HPTS dye encapsulated EPYC/cholesterol vesicles assessed as increase in internal pH at 20 uM after 2 mins in presence of NaOH loaded external vesicles by fluorescence spectroscopic analysis
[3] = Binding affinity to potassium ion in 1,2-diphytanoyl-sn-glycero-3-phosphocholine based bilayer membrane assessed as increase in membrane current at 0.1 mg/ml in presence of KCl loaded cis membrane
[4] = Binding affinity to potassium ion in 1,2-diphytanoyl-sn-glycero-3-phosphocholine based bilayer membrane assessed as reversal of membrane potential at 0.1 mg/ml in presence of KCl loaded cis membrane
[5] = Binding affinity to sodium ion in HPTS dye encapsulated EPYC/cholesterol vesicles assessed as increase in internal pH at 5 mol% of lipid after 2 mins in presence of NaOH loaded external vesicles by fluorescence spectroscopic analysis (reference value: 5.6 +/- 1.2 10^-3/s)
[6] = Binding affinity to lithium ion in HPTS dye encapsulated EPYC/cholesterol vesicles assessed as increase in internal pH at 5 mol% of lipid after 2 mins in presence of LiOH loaded external vesicles by fluorescence spectroscopic analysis (reference value: 5.6 +/- 1.2 10^-3/s)
[7] = Binding affinity to sodium ion in lucigenin/NaCl encapsulated EPYC/cholesterol vesicle by fluorescence spectroscopic method
[8] = Binding affinity to sodium ion in lucigenin/NaCl encapsulated EPYC/cholesterol vesicle at 10 mol% of lipid by fluorescence spectroscopic method
[9] = Binding affinity to potassium ion in HPTS dye encapsulated EPYC/cholesterol vesicles assessed as increase in internal pH at 5 mol% of lipid after 2 mins in presence of KOH loaded external vesicles by fluorescence spectroscopic analysis (reference value: 5.6 +/- 1.2 10^-3/s)

Activity [2] | Activity [3] | Activity [4] | K [5] | K [6] | EC50 [7] | K [8] | K [9] | Compound | Activity [1]
Active | 40 pA | -14.9 mV |  |  |  |  |  | CCCCCCCCCCCCCC(=O)N[C@@H](C)C(=O)Nc1cccc(C(=O)N[C@@H](C)C(=O)N[C@H](C)C(=O)OCCOCCOCC)n1 | Non-Toxic
 | 30 pA | -10.8 mV | 28.9 ×10⁻³ /s | 17.5 ×10⁻³ /s | 0.94 mol% | 9.7 ×10⁻³ /s | 15.8 ×10⁻³ /s | CCCCCCCCCCCCCC(=O)N[C@@H](C)C(=O)N[C@H](C)C(=O)N[C@@H](C)C(=O)Nc1cccc(C(=O)OCCOCCOCC)n1 | Non-Toxic
 |  |  | 12.4 ×10⁻³ /s | 14.3 ×10⁻³ /s |  |  | 15.3 ×10⁻³ /s | CCCCCCCCCCCCCC(=O)N[C@@H](C)C(=O)N[C@H](C)C(=O)N[C@@H](C)C(=O)Nc1cccc(C(=O)OC)n1 | Non-Toxic
